According to US3932633A, “Novel o-triazenobenzamides, in treating aggressive behavior” (Uniroyal Inc., priority 1974, dated 1976):

Columns and labels:
[1] = system: isolation-induced fighting in mice; assay: Isolated fighting mouse (IFM) test / isolated mouse aggression; format: in vivo
Experimental: *IFM - Isolated fighting mouse test at a dose of 30 mg/kg
intraperitoneally; those compounds which protected at least 40% of the
(§1) Two models of aggression are used in the primary screening for neuroleptics, (1) isolation-induced fighting in mice (IFM), and (2) aggression induced in rats by destruction of the septal area (septal rat). Compounds are first submitted, however, to the neuropharmacological profile, a standard procedure (see, e.g., Samuel Irwin, Science, 136, 123 [1962]) employed in screening a compound to determine its usefulness as a central nervous system active compound. Those agents which cause depression over a wide dose range are then submitted to the first anti-aggression screen, the isolation-induced fighting mouse assay.
(§2) The compound of Example 6 was compared with chlorpromazine and chlordiazepoxide for its anti-aggressive activity. Three models of experimentally-induced aggression in rodents were studied (R. D. Sofia, Life Science, 8: 705, 1969).

[2] = system: spontaneous locomotor activity in rats; assay: Spontaneous locomotor activity; format: in vivo; conditions: Rattus norvegicus, ip, 0.5 h; I.P., rats, 30 minutes after administration, 30 minute activity count; read-out: SD50 (dose causing 50% reduction from control activity)
[3] = Neurotoxicity (rotating rod / rotorod), mice; conditions: mouse, in vivo, ip; I.P., mice; 95% confidence limits; read-out: NTD50
Experimental: (§3) In the neurotoxicity test, the value (NTD50) is defined as the dose necessary to cause 50% of mice or rats trained to walk a rotating wooden rod (5 rpm) to fall at the time of peak effect, and is a measure of drug effects on motor function or central nervous system toxicity. The results set forth in Table III were obtained when the compound of Example 6 was tested against chlorpromazine and chlordiazepoxide.

[4] = Neurotoxicity (rotating rod / rotorod), rats; conditions: rat, in vivo, ip
Experimental: as §3

[5] = system: electroshock-induced fighting in mice; assay: Electroshock-induced fighting in mice; format: in vivo, mouse; conditions: i.p. administration
Excerpt: as §2

[6] = system: aggression induced in rats by destruction of the septal area; assay: Septal rat aggression; format: in vivo
Excerpt: as §1, §2

[7] = system: maximal electroshock seizures in mice; assay: Maximal electroshock seizures; format: in vivo, mouse; conditions: I.P., mice; inactive at: Example 6 200 mg/kg, chlorpromazine 25 mg/kg
Experimental: Groups of ten mice each were injected i.p. with a vehicle and the compound of Example 6 and placed in individual Plexiglas squares. Thirty minutes after i.p. injection, each mouse was administered an electric shock transcorneally at 50mA intensity, 0.2 seconds duration (Swinyard, et al, J. Pharmacol. Exptl. Ther., 106: 319, 1952). The criterion for activity is protection against tonic extension of the hind limbs. The dose necessary to protect 50% of the mice (MES50) was determined.

[8] = system: pentylenetetrazol seizures in mice; assay: Pentylenetetrazol seizures; format: in vivo, mouse; conditions: I.P., mice; inactive at: Example 6 200 mg/kg, chlorpromazine 100 mg/kg
Experimental: In this test (modification of the method introduced by Everett and Richard, J. Pharmacol. Exptl. Ther., 81: 402, 1944), groups of ten mice each are pretreated i.p. with vehicle and various doses of the compound of Example 6 and placed in Plexiglas squares. Thirty minutes later, all mice are injected subcutaneously (s.c.) with pentylenetetrazol at 125 mg/kg and observed immediately thereafter for convulsions and death for a period of 1 hour.

[9] = system: d-amphetamine aggregation-induced lethality; assay: d-Amphetamine aggregation; format: in vivo; conditions: inactive at: Example 6 200 mg/kg, chlordiazepoxide 50 mg/kg
Experimental: Protection from d-amphetamine aggregation-induced lethality is usually afforded by alpha-adrenergic-blocking agents such as chlorpromazine, phenoxybenzamine, etc. Percent protection was determined and an ED50 value was calculated.

[10] = system: dihydroxyphenylalanine-induced fighting behavior in mice; assay: Dihydroxyphenylalanine (DOPA) fighting test; format: in vivo, mouse
Experimental: It is well known that when monoamine oxidase inhibitors are administered prior to the administration of d1-DOPA, which is a noradrenaline precursor, convulsions or excitation occur. In this study, the MAO inhibitor pargyline (80 mg/kg) was given 1, 2 and 4 hours prior to administering 200 mg/kg of d1-DOPA. […] Thus, in this procedure, none of the agents tested appears to be a MAO inhibitor.

[11] = system: tetrabenazine-induced ptosis in mice; assay: Antagonism of tetrabenazine-induced ptosis; format: in vivo, mouse; conditions: 200 mg/kg, 30 minutes before tetrabenazine 32 mg/kg intraperitoneally
Experimental: Groups of mice were given 32 mg/kg of tetrabenazine intraperitoneally 30 minutes after an injection of the compound of Example 6 (200 mg/kg). The degree of ptosis (eyelid drooping or closure) was then determined exactly 30 minutes after tetrabenazine administration.

[12] = 5 day lethality, mice; conditions: mouse, in vivo
Excerpt: (§4) Table VIII gives the results of 5 day lethality studies following single injections of drug. All values presented represent tests conducted when animals were housed 10 per cage. The compound of Example 6 was compared with chlorpromazine and chlordiazepoxide. In these and all the preceding calculations, the method of Litchfield and Wilcoxon (J. Pharmacol. Exptl. Ther., 96: 99, 1949) was used to estimate effective (ED50) or lethal (LD50) dose.

[13] = 5 day lethality, rats; conditions: rat, in vivo, ip
Excerpt: as §4

[14] = system: hissing response elicited by hypothalamic stimulation in cats; assay: Evoked hypothalamic rage response - cats; format: in vivo, cat; conditions: 25 mg/kg orally for three days
Excerpt: The effect of the compound of Example 6 on the hissing response elicited by hypothalamic stimulation in cats was studied in an effort to determine if it had properties similar to that of chlordiazepoxide and other anti-anxiety-like agents. […] Cats with chronically implanted electrodes, stereotaxically placed in the perifornical region of the hypothalamus, were used in this study. Stimulation was accomplished in the unanesthetized, freely moving animal, and the threshold for the hissing response was determined with the following stimulus parameters: square wave stimulation of 150 Hz with a duration of 0.5 msec and voltage ranging from 5.4 to 30. The compound of Example 6 was administered orally in capsule form. Following administration, the stimulation threshold for the hiss response was determined at 1, 2, 4, 6 and 24 hours. If an effect was observed, the stimulation was carried out daily until the thresholds returned to control values. The compound of Example 6 was administered orally at a dose of 25 mg/kg for three days. […] It can be concluded that the compound of Example 6 has no effect on hypothalamic excitability in cats and in this respect differs markedly from chlordiazepoxide.

[15] = system: mice; assay: Neuropharmacological profile; format: in vivo, mouse
Excerpt: as §1
The compound of Example 6 was studied in the neuropharmacological profile, which, as indicated above, is a standardized multi-dimensional observation technique used on mice to grade symptomatology and acute toxicity relative to dosage.

Structure (SMILES): Cc1nc(NN=Nc2ccccc2C(N)=O)sc1C(=O)NCc1ccccc1 [Example 6, 2-[3-(4-methyl-5-(N-benzyl-carbamoyl)-2-thiazolyl)-2(or 1)-triazeno]-benzamide]
- responders at 30 mg/kg ([1]; Mus musculus, ip, 30 mg/kg intraperitoneally, at least 40% protected = active): 100%
- ED50 ([1]; Mus musculus, ip, i.p. administration, read-out: ED50 (95% Confidence Limits), Isolated Mouse Aggression): 1.8 mg/kg
- NTD50/ED50, Isolated Mouse Aggression ([1]; i.p. administration): 710
- ED50 [2]: ~500 mg/kg
- TD50 [3]: > 1280 mg/kg
- TD50 [4]: ~500 mg/kg
- ED50 ([5]; Mus musculus, ip, read-out: ED50 (95% Confidence Limits), Electroshock-Induced Fighting in Mice): 96 mg/kg
- NTD50/ED50, Electroshock-Induced Fighting in Mice [5]: 13.3
- ED50 ([6]; Rattus norvegicus, ip, i.p. administration, read-out: ED50 (95% Confidence Limits), Septal Rat Aggression): ~4.5 mg/kg
- NTD50/ED50, Septal Rat Aggression ([6]; i.p. administration): 111.0
- selectivity in inhibition of septal rat aggression versus chlordiazepoxide ([6]; septal rat): 185 times
- MES50 [7]: Inactive
- MET50 [8]: Inactive
- ED50, d-amphetamine aggregation [9]: Inactive
- excitation, salivation, jumping, and fighting with d1-DOPA ([10]; 200 mg/kg d1-DOPA, pargyline 80 mg/kg, Example 6 100 mg/kg, chlorpromazine 5 mg/kg, chlordiazepoxide 15 mg/kg): these symptoms were not observed
- potentiation of dihydroxyphenylalanine-induced fighting behavior in mice ([10]; mice): failed to (1) potentiate dihydroxyphenylalanine-induced fighting behavior in mice
- reversal of tetrabenazine-induced ptosis [11]: did not reverse tetrabenazine-induced ptosis
- LD50 at 120 h ([12]; ip): > 1280 mg/kg
- LD50 at 120 h ([12]; po): > 800 mg/kg
- LD50 at 120 h [13]: > 1400 mg/kg
- decrease of the threshold for the rage response [14]: not observed during the experiments
- delay from stimulus to response [14]: not changed
- rage response, intensity or character [14]: not changed in intensity or character
- effect on hypothalamic stimulation (threshold) ([14]; 25 mg/kg): no effect on hypothalamic stimulation
- deaths in neuropharmacological profile ([15]; 30, 100, 300 mg/kg, mice): No deaths occurred
- central nervous system depressant action, profile result ([15]; mouse, in vivo): very weak central nervous system depressant
